Source: PubChem BioAssay (NCI)
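In this assay, cells in 96-well plates receive the compound at five concentrations for 48 hours. Endpoints are linearly interpolated between the surrounding concentrations. The concentration for 50% growth inhibition is given as GI50. TGI marks complete inhibition of growth.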

Key:
Assay in all cases: NCI-60 cell line screen, 48 h; in the data active = GI50 below about 0.43 µM; inactive = the rest
786-0 renal = test system: 786-0 renal
A498 renal = test system: A498 renal
A549 NSCLC = test system: A549 NSCLC
ACHN renal = test system: ACHN renal
BT-549 breast = test system: BT-549 breast
CAKI-1 renal = test system: CAKI-1 renal
CCRF-CEM leukemia = test system: CCRF-CEM leukemia
COLO 205 colon = test system: COLO 205 colon
DU-145 prostate = test system: DU-145 prostate
EKVX NSCLC = test system: EKVX NSCLC
HCC-2998 colon = test system: HCC-2998 colon
HCT-116 colon = test system: HCT-116 colon
HCT-15 colon = test system: HCT-15 colon
HL-60(TB) leukemia = test system: HL-60(TB) leukemia
HOP-62 NSCLC = test system: HOP-62 NSCLC
HOP-92 NSCLC = test system: HOP-92 NSCLC
HS 578T breast = test system: HS 578T breast
HT29 colon = test system: HT29 colon
IGROV1 ovarian = test system: IGROV1 ovarian
K-562 leukemia = test system: K-562 leukemia
KM12 colon = test system: KM12 colon
LOX IMVI melanoma = test system: LOX IMVI melanoma
M14 melanoma = test system: M14 melanoma
MALME-3M melanoma = test system: MALME-3M melanoma
MCF7 breast = test system: MCF7 breast
MDA-MB-231 breast = test system: MDA-MB-231 breast
MDA-MB-435 = test system: MDA-MB-435
MOLT-4 leukemia = test system: MOLT-4 leukemia
NCI-H226 lung = test system: NCI-H226 lung
NCI-H23 lung = test system: NCI-H23 lung
NCI-H460 lung = test system: NCI-H460 lung
NCI-H522 lung = test system: NCI-H522 lung
NCI/ADR-RES ovarian = test system: NCI/ADR-RES ovarian
OVCAR-3 ovarian = test system: OVCAR-3 ovarian
OVCAR-4 ovarian = test system: OVCAR-4 ovarian
OVCAR-5 ovarian = test system: OVCAR-5 ovarian
OVCAR-8 ovarian = test system: OVCAR-8 ovarian
PC-3 prostate = test system: PC-3 prostate
RPMI-8226 leukemia = test system: RPMI-8226 leukemia
RXF 393 renal = test system: RXF 393 renal
SF-268 CNS = test system: SF-268 CNS
SF-295 CNS = test system: SF-295 CNS
SF-539 CNS = test system: SF-539 CNS
SK-MEL-2 melanoma = test system: SK-MEL-2 melanoma
SK-MEL-28 melanoma = test system: SK-MEL-28 melanoma
SK-MEL-5 melanoma = test system: SK-MEL-5 melanoma
SK-OV-3 ovarian = test system: SK-OV-3 ovarian
SN12C renal = test system: SN12C renal
SNB-19 CNS = test system: SNB-19 CNS
SNB-75 CNS = test system: SNB-75 CNS
SR leukemia = test system: SR leukemia
SW-620 colon = test system: SW-620 colon
T-47D breast = test system: T-47D breast
TK-10 renal = test system: TK-10 renal
U251 CNS = test system: U251 CNS
UACC-257 melanoma = test system: UACC-257 melanoma
UACC-62 melanoma = test system: UACC-62 melanoma
UO-31 renal = test system: UO-31 renal

N#Cc1cccc(/C(N)=N/C(N)=N/c2nc3ccccc3s2)c1
73800 nM: TGI (NCI-H226 lung)
> 60700 nM: TGI (SK-MEL-2 melanoma)
> 71700 nM: TGI (SF-268 CNS)
> 72600 nM: TGI (SNB-19 CNS)
> 71500 nM: TGI (UACC-62 melanoma)
> 43300 nM: TGI (HS 578T breast)
> 100000 nM: TGI (A549 NSCLC) | TGI (ACHN renal) | TGI (CCRF-CEM leukemia) | TGI (COLO 205 colon) | TGI (DU-145 prostate) | TGI (EKVX NSCLC) | TGI (HCC-2998 colon) | TGI (HCT-116 colon) | TGI (HCT-15 colon) | TGI (HT29 colon) | TGI (IGROV1 ovarian) | TGI (K-562 leukemia) | TGI (KM12 colon) | TGI (LOX IMVI melanoma) | TGI (M14 melanoma) | TGI (MCF7 breast) | TGI (MDA-MB-231 breast) | TGI (NCI-H23 lung) | TGI (NCI-H460 lung) | TGI (NCI-H522 lung) | TGI (NCI/ADR-RES ovarian) | TGI (OVCAR-4 ovarian) | TGI (OVCAR-5 ovarian) | TGI (OVCAR-8 ovarian) | TGI (PC-3 prostate) | TGI (RPMI-8226 leukemia) | TGI (SK-MEL-28 melanoma) | TGI (SN12C renal) | TGI (SR leukemia) | TGI (SW-620 colon) | TGI (T-47D breast) | TGI (UACC-257 melanoma) | TGI (UO-31 renal)
2420 nM: TGI (RXF 393 renal)
40700 nM: TGI (SK-OV-3 ovarian)
inactive: GI50 (786-0 renal) 733 nM | GI50 (A498 renal) 1130 nM | GI50 (A549 NSCLC) 3480 nM | GI50 (ACHN renal) 855 nM | GI50 (BT-549 breast) 1030 nM | GI50 (CAKI-1 renal) 538 nM | GI50 (CCRF-CEM leukemia) 551 nM | GI50 (COLO 205 colon) 1020 nM | GI50 (DU-145 prostate) 1560 nM | GI50 (EKVX NSCLC) 2410 nM | GI50 (HCC-2998 colon) 2850 nM | GI50 (HCT-116 colon) 487 nM | GI50 (HCT-15 colon) 443 nM | GI50 (HOP-62 NSCLC) 609 nM | GI50 (HOP-92 NSCLC) 2750 nM | GI50 (HS 578T breast) 531 nM | GI50 (HT29 colon) 450 nM | GI50 (IGROV1 ovarian) 826 nM | GI50 (KM12 colon) 511 nM | GI50 (LOX IMVI melanoma) 614 nM | GI50 (M14 melanoma) 513 nM | GI50 (MALME-3M melanoma) 1570 nM | GI50 (MCF7 breast) 427 nM | GI50 (MDA-MB-231 breast) 2640 nM | GI50 (MOLT-4 leukemia) 657 nM | GI50 (NCI-H226 lung) 1220 nM | GI50 (NCI-H23 lung) 1790 nM | GI50 (NCI-H460 lung) 479 nM | GI50 (NCI-H522 lung) 481 nM | GI50 (NCI/ADR-RES ovarian) 437 nM | GI50 (OVCAR-3 ovarian) 508 nM | GI50 (OVCAR-4 ovarian) 2740 nM | GI50 (OVCAR-5 ovarian) 3650 nM | GI50 (OVCAR-8 ovarian) 1590 nM | GI50 (PC-3 prostate) 840 nM | GI50 (RPMI-8226 leukemia) 686 nM | GI50 (SF-268 CNS) 1700 nM | GI50 (SF-295 CNS) 504 nM | GI50 (SF-539 CNS) 457 nM | GI50 (SK-MEL-2 melanoma) 1330 nM | GI50 (SK-MEL-28 melanoma) 5330 nM | GI50 (SK-MEL-5 melanoma) 699 nM | GI50 (SK-OV-3 ovarian) 1790 nM | GI50 (SN12C renal) 1130 nM | GI50 (SNB-19 CNS) 614 nM | GI50 (SR leukemia) 437 nM | GI50 (SW-620 colon) 485 nM | GI50 (T-47D breast) 659 nM | GI50 (TK-10 renal) 9170 nM | GI50 (U251 CNS) 591 nM | GI50 (UACC-257 melanoma) > 100000 nM | GI50 (UO-31 renal) 1810 nM
> 92400 nM: TGI (TK-10 renal)
> 25600 nM: TGI (MOLT-4 leukemia)
11600 nM: TGI (A498 renal)
> 59300 nM: TGI (BT-549 breast)
> 77700 nM: TGI (786-0 renal)
4050 nM: TGI (SF-539 CNS)
> 54400 nM: TGI (U251 CNS)
> 34300 nM: TGI (CAKI-1 renal)
> 28200 nM: TGI (SK-MEL-5 melanoma)
18200 nM: TGI (HOP-62 NSCLC)
776 nM: TGI (MDA-MB-435)
9330 nM: TGI (SNB-75 CNS)
> 23200 nM: TGI (OVCAR-3 ovarian)
> 41000 nM: TGI (SF-295 CNS)
> 60600 nM: TGI (HOP-92 NSCLC)
active: GI50 (HL-60(TB) leukemia) 311 nM | GI50 (K-562 leukemia) 316 nM | GI50 (MDA-MB-435) 211 nM | GI50 (RXF 393 renal) 388 nM | GI50 (SNB-75 CNS) 213 nM | GI50 (UACC-62 melanoma) 418 nM
> 66700 nM: TGI (MALME-3M melanoma)
